Results as given in ChEMBL document CHEMBL3714734, “Modulators of G protein-coupled receptor 88” (2013).

Experiments:
[1] = target: T1, G protein-coupled receptor 88 (Homo sapiens, UniProt Q9GZN0); experiment: Modulator activity at GPR88 (unknown origin) incubated for 30 mins by cell based cAMP HTRF assay; assay type: functional
[2] = target: T1, G protein-coupled receptor 88; experiment: Modulator activity at GPR88 (unknown origin) expressed in cell membranes incubated for 1 hr by liquid scintillation counting based [35S]GTPgammaS binding assay; assay type: functional

T1 sequence (Q9GZN0 whole entry): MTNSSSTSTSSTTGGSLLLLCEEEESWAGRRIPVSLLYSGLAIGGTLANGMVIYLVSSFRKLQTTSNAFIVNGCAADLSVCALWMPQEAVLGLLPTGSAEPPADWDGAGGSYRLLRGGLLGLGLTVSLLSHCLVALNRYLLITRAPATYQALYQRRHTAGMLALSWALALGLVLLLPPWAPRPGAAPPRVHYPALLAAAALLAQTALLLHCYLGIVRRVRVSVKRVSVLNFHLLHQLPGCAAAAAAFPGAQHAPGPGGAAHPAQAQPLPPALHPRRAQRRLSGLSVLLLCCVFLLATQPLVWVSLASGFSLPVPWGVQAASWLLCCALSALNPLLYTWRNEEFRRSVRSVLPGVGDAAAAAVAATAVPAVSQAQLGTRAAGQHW

`Cc1ccc(-c2ccc([C@H](CO)NC(=O)[C@H]3C[C@@H]3c3cccs3)cc2)cc1` was tested, and the EC50 [1] was ≤ 130 nM.

`CC[C@H](C)COc1ccc([C@H](CN2CCN(C)CC2)NC(=O)[C@H]2C[C@@H]2c2cccs2)cc1` was tested, and the EC50 [1] was ≤ 130 nM.

For `CC[C@H](C)COc1ccc([C@H](CN)NC(=O)[C@H]2C[C@@H]2c2cccs2)cc1`, the EC50 [2] was ≤ 130 nM.

`CCC(CC)COc1ccc([C@H](CO)NC(=O)[C@H]2C[C@@H]2c2cccs2)c(C)c1` was tested, and the EC50 [1] was ≤ 130 nM.

`CC[C@H](C)COc1ccc([C@H](CO)NC(=O)[C@H]2C[C@@H]2c2cccs2)c(C)c1` was tested, and the EC50 [1] was ≤ 130 nM.

`CCC(CC)COc1ccc([C@H](CO)NC(=O)[C@H]2C[C@@H]2c2cccs2)cc1` was tested, and the EC50 [1] was ≤ 130 nM.

For `CCCC(C)COc1ccc([C@H](CN2CCN(C)CC2)NC(=O)[C@H]2C[C@@H]2c2cccs2)cc1` (stereo partly drawn), the EC50 [2] was ≤ 130 nM.

`CC[C@H](C)COc1ccc([C@H](CN)NC(=O)[C@H]2C[C@@H]2c2cccs2)c(C)c1` was tested, and the EC50 [2] was ≤ 130 nM.

For `CCc1ccc(-c2ccc([C@H](CO)NC(=O)[C@H]3C[C@@H]3c3cccs3)cc2)cc1`, the EC50 [2] was ≤ 130 nM.

In the case of `CCc1ccc(-c2ccc([C@H](CO)NC(=O)[C@H]3C[C@@H]3c3cccs3)c(OC)c2)cc1`, the EC50 [2] is reported as ≤ 130 nM.

In the case of `CCCC(C)COc1ccc([C@H](CO)NC(=O)[C@H]2C[C@@H]2c2cccs2)c(C)c1` (stereo partly drawn), the EC50 [1] is reported as ≤ 130 nM.

In the case of `CCCC#Cc1ccc([C@H](CO)NC(=O)[C@H]2C[C@@H]2c2cccs2)c(OC)c1`, the EC50 [1] is reported as ≤ 130 nM.

`CC[C@H](NC(=O)[C@H]1C[C@@H]1c1ccccc1)c1ccc(-c2ccc(OC)cc2)cc1` was tested, and the EC50 [2] was ≤ 130 nM.
